Test results as given in the kinase profiling compilation of Christmann-Franck et al. (2016).

Key:
Test in all cases: split-luciferase competition binding
AKT1 (human) = AKT1 (human) (UniProt P31749); details: compound 10.0 µM
AKT2 (human) = AKT2 (human) (UniProt P31751); details: compound 10.0 µM
AKT3 (human) = AKT3 (human) (UniProt Q9Y243); details: compound 10.0 µM
AURKA (human) = AURKA (human) (UniProt O14965); details: compound 10.0 µM
AURKB (human) = AURKB (human) (UniProt Q96GD4); details: compound 10.0 µM
AURKC (human) = AURKC (human) (UniProt Q9UQB9); details: compound 10.0 µM
DMPK (human) = DMPK (human) (UniProt Q09013); details: compound 10.0 µM
PDPK1 (human) = PDPK1 (human) (UniProt O15530); details: compound 10.0 µM
PKN1 (human) = PKN1 (human) (UniProt Q16512); details: compound 10.0 µM
PRKACA (mouse) = details: compound 10.0 µM; accession and sequence are those of the human protein
PRKACB (human) = PRKACB (human) (UniProt P22694); details: compound 10.0 µM
PRKCD (human) = PRKCD (human) (UniProt Q05655); details: compound 10.0 µM
PRKCE (human) = PRKCE (human) (UniProt Q02156); details: compound 10.0 µM
PRKCG (human) = PRKCG (human) (UniProt P05129); details: compound 10.0 µM
PRKCH (human) = PRKCH (human) (UniProt P24723); details: compound 10.0 µM
PRKCI (human) = PRKCI (human) (UniProt P41743); details: compound 10.0 µM
PRKCQ (human) = PRKCQ (human) (UniProt Q04759); details: compound 10.0 µM
PRKX (human) = PRKX (human) (UniProt P51817); details: compound 10.0 µM
RPS6KA1 KD1 (human) = RPS6KA1 KD1 (human) (UniProt Q15418); details: compound 10.0 µM
RPS6KA2 KD1 (human) = RPS6KA2 KD1 (human) (UniProt Q15349); details: compound 10.0 µM
RPS6KA3 KD1 (human) = RPS6KA3 KD1 (human) (UniProt P51812); details: compound 10.0 µM
RPS6KA4 KD1 (human) = RPS6KA4 KD1 (human) (UniProt O75676); details: compound 10.0 µM
RPS6KA5 KD1 (human) = RPS6KA5 KD1 (human) (UniProt O75582); details: compound 10.0 µM
RPS6KA6 KD1 (human) = RPS6KA6 KD1 (human) (UniProt Q9UK32); details: compound 10.0 µM
SGK2 (human) = SGK2 (human) (UniProt Q9HBY8); details: compound 10.0 µM
SGK3 (human) = SGK3 (human) (UniProt Q96BR1); details: compound 10.0 µM
STK32B (human) = STK32B (human) (UniProt Q9NY57); details: compound 10.0 µM

SGK2 (human), sequence (Q9HBY8 whole entry, looked up): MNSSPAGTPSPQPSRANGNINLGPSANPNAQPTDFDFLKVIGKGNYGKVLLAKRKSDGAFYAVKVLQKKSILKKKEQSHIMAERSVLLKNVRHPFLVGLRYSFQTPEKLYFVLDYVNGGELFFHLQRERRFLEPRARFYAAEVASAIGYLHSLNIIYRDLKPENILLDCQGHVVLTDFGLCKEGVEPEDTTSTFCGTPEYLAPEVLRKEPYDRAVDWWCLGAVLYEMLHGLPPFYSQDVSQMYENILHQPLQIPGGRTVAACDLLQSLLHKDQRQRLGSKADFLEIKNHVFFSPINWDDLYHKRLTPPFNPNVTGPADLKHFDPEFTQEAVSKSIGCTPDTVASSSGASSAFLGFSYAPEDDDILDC
PRKCD (human), sequence (Q05655 whole entry, looked up): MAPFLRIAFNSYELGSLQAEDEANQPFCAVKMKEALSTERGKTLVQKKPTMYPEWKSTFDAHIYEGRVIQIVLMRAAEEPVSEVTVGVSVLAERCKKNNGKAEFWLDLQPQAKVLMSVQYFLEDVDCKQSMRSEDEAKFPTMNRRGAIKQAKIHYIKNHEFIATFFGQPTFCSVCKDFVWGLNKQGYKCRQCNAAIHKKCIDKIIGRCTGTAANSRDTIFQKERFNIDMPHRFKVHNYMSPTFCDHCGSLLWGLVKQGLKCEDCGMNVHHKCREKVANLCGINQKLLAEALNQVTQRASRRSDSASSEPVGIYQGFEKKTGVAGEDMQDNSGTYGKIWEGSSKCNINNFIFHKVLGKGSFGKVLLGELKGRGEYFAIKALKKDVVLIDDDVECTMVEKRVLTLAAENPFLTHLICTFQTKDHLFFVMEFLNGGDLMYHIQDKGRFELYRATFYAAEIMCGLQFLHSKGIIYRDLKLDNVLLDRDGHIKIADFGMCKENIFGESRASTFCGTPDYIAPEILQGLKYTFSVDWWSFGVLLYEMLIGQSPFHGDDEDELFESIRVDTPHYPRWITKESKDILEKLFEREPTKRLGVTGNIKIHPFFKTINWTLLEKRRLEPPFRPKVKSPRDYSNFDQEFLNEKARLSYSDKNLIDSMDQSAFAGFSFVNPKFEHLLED
AKT3 (human), sequence (Q9Y243 whole entry, looked up): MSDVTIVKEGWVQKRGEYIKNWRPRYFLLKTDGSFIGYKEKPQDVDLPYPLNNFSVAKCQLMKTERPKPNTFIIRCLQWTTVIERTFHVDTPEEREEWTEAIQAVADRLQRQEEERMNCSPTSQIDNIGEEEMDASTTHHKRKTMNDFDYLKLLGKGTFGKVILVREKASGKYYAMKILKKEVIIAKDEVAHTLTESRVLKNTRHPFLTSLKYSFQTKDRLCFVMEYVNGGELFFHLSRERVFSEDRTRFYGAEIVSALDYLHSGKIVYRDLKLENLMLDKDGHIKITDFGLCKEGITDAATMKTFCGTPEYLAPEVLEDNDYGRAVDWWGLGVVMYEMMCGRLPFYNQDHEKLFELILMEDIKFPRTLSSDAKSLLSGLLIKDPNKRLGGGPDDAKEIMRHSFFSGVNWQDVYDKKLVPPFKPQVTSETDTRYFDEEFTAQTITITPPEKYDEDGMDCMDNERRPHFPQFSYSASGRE
AURKB (human), sequence (Q96GD4 whole entry, looked up): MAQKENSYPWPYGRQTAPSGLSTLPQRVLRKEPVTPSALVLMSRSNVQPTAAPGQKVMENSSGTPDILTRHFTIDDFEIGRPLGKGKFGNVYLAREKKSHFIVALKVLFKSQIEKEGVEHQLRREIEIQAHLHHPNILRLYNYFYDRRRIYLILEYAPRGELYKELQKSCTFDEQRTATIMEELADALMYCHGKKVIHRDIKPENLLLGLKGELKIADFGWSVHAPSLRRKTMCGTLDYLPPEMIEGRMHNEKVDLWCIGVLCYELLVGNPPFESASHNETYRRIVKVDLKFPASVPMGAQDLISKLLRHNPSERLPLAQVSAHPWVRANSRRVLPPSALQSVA
RPS6KA6 KD1 (human), sequence (Q9UK32 whole entry, looked up): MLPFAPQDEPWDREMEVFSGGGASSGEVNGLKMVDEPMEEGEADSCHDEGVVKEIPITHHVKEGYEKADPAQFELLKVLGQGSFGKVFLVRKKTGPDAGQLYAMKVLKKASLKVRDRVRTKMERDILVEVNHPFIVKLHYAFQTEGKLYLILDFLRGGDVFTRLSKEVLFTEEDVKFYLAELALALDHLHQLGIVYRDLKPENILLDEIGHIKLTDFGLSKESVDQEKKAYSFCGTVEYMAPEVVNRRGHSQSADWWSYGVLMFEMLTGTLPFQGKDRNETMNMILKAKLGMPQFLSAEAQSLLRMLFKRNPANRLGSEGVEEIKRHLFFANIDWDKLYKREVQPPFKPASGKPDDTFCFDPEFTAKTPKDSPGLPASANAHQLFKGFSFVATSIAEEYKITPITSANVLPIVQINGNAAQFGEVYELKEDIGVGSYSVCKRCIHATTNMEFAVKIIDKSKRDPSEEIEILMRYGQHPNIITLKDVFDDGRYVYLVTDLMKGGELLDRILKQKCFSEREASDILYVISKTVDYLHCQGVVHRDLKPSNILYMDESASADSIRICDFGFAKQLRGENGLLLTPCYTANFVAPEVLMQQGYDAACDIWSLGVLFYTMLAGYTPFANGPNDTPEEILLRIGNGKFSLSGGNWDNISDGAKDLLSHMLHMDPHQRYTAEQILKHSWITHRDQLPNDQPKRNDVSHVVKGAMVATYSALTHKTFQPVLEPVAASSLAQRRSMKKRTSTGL
AKT2 (human), sequence (P31751 whole entry, looked up): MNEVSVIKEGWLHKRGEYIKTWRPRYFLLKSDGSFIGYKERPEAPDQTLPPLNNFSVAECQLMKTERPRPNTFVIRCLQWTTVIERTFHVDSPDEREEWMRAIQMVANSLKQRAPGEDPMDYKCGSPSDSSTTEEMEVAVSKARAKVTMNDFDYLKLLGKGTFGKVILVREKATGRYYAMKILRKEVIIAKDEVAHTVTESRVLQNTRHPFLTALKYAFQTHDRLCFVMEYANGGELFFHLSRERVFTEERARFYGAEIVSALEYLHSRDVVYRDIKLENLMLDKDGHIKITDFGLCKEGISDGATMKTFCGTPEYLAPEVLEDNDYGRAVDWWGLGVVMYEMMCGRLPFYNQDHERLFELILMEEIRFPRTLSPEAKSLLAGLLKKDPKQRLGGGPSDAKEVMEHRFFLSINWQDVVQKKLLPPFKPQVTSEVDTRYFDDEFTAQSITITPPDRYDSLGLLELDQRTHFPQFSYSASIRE
RPS6KA1 KD1 (human), sequence (Q15418 whole entry, looked up): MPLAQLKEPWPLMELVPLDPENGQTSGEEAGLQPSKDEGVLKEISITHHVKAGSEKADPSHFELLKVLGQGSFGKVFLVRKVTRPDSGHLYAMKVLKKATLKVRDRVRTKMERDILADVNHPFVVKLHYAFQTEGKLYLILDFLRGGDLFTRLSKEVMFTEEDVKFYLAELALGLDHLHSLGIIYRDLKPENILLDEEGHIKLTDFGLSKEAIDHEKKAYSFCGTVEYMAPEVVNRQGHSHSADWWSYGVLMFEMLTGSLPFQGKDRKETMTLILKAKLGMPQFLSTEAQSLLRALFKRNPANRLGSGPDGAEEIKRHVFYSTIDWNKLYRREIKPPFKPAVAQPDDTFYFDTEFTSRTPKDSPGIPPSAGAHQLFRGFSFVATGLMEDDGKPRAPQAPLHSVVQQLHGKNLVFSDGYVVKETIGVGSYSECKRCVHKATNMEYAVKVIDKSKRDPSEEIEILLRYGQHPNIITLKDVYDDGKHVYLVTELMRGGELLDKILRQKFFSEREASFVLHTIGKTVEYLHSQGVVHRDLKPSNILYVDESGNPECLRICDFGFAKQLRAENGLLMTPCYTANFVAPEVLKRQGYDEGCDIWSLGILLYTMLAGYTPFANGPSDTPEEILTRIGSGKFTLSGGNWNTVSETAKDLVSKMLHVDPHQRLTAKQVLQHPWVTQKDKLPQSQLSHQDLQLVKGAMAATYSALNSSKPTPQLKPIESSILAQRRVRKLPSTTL
PRKCQ (human), sequence (Q04759 whole entry, looked up): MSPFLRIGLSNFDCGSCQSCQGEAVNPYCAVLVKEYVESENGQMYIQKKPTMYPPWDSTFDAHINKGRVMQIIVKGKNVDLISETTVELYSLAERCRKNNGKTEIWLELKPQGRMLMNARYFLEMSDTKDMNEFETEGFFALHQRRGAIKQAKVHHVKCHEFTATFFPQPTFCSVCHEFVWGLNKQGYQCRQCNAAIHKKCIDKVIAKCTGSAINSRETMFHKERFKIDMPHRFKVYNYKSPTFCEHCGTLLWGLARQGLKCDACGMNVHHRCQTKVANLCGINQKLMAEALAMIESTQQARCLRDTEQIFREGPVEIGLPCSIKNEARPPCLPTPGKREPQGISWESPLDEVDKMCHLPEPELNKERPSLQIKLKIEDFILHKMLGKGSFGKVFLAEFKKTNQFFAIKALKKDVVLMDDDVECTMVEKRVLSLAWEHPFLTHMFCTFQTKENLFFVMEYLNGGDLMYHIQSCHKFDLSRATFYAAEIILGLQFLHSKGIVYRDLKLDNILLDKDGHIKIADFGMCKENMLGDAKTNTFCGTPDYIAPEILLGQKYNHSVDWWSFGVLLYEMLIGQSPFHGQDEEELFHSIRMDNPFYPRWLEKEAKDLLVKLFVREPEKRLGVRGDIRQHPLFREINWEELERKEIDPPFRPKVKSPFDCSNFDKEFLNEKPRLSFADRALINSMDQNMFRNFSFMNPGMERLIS
PRKX (human), sequence (P51817 whole entry, looked up): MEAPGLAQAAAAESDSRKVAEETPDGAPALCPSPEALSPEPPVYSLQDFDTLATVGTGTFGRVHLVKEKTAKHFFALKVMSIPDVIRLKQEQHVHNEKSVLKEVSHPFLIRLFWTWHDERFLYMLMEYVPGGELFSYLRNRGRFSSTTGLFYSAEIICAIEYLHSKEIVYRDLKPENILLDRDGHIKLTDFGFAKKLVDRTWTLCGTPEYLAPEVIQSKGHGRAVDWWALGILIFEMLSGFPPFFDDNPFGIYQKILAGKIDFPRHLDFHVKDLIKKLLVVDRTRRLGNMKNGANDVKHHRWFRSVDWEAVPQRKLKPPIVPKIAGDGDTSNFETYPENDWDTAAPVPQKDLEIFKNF

inhibition (AKT1 (human)) | inhibition (AKT2 (human)) | inhibition (AKT3 (human)) | inhibition (AURKA (human)) | inhibition (AURKB (human)) | inhibition (AURKC (human)) | inhibition (DMPK (human)) | inhibition (PDPK1 (human)) | inhibition (PKN1 (human)) | inhibition (PRKACA (mouse)) | inhibition (PRKACB (human)) | inhibition (PRKCD (human)) | inhibition (PRKCE (human)) | inhibition (PRKCG (human)) | inhibition (PRKCH (human)) | inhibition (PRKCI (human)) | inhibition (PRKCQ (human)) | inhibition (PRKX (human)) | inhibition (RPS6KA1 KD1 (human)) | inhibition (RPS6KA2 KD1 (human)) | Compound | also measured
0% | 0% | 0% | 3% | 15% | 7% | 0% | 0% | 0% | 21% | 3% | 5% | 2% | 0% | 2% | 0% | 11% | 3% | 81% | 79% | CC(C)[C@H](CO)Nc1nc(Nc2ccc(C(=O)O)c(Cl)c2)c2ncn(C(C)C)c2n1 | inhibition (RPS6KA3 KD1 (human)): 66%; inhibition (RPS6KA4 KD1 (human)): 44%; inhibition (RPS6KA5 KD1 (human)): 0%; inhibition (RPS6KA6 KD1 (human)): 50%; inhibition (SGK2 (human)): 0%; inhibition (SGK3 (human)): 3%; inhibition (STK32B (human)): 9%
39% | 26% | 35% | 0% | 12% | 8% | 18% | 12% | 0% | 21% | 19% | 10% | 27% | 10% | 43% | 8% | 51% | 12% | 18% | 5% | Fc1ccc(Cl)cc1-c1nc(Nc2ccncc2)c2nccnc2n1 | inhibition (RPS6KA3 KD1 (human)): 12%; inhibition (RPS6KA4 KD1 (human)): 8%; inhibition (RPS6KA5 KD1 (human)): 24%; inhibition (RPS6KA6 KD1 (human)): 13%; inhibition (SGK2 (human)): 22%; inhibition (SGK3 (human)): 14%; inhibition (STK32B (human)): 15%
0% | 0% | 0% | 0% | 0% | 0% | 7% | 0% | 0% | 13% | 1% | 6% | 6% | 0% | 10% | 0% | 29% | 6% | 83% | 79% | CC(C)[C@H](CO)Nc1nc(Nc2cc(N)cc(Cl)c2)c2ncn(C(C)C)c2n1 | inhibition (RPS6KA3 KD1 (human)): 77%; inhibition (RPS6KA4 KD1 (human)): 39%; inhibition (RPS6KA5 KD1 (human)): 18%; inhibition (RPS6KA6 KD1 (human)): 55%; inhibition (SGK2 (human)): 2%; inhibition (SGK3 (human)): 5%; inhibition (STK32B (human)): 20%
0% | 0% | 0% | 6% | 12% | 23% | 0% | 0% | 0% | 0% | 5% | 9% | 4% | 0% | 2% | 0% | 0% | 2% | 7% | 0% | O=C1NC(=O)C(c2ccccc2[N+](=O)[O-])=C1Nc1ccc(O)c(Cl)c1 | inhibition (RPS6KA3 KD1 (human)): 0%; inhibition (RPS6KA4 KD1 (human)): 0%; inhibition (RPS6KA5 KD1 (human)): 0%; inhibition (RPS6KA6 KD1 (human)): 9%; inhibition (SGK2 (human)): 0%; inhibition (SGK3 (human)): 0%; inhibition (STK32B (human)): 0%

Continued, compound first:

Compound | inhibition (AKT1 (human)) | inhibition (AKT2 (human)) | inhibition (AKT3 (human)) | inhibition (AURKA (human)) | inhibition (AURKB (human)) | inhibition (AURKC (human)) | inhibition (DMPK (human)) | inhibition (PDPK1 (human)) | inhibition (PKN1 (human)) | inhibition (PRKACA (mouse)) | inhibition (PRKACB (human)) | inhibition (PRKCD (human)) | inhibition (PRKCE (human)) | inhibition (PRKCG (human)) | inhibition (PRKCH (human)) | inhibition (PRKCI (human)) | inhibition (PRKCQ (human)) | inhibition (PRKX (human)) | inhibition (RPS6KA1 KD1 (human)) | inhibition (RPS6KA2 KD1 (human)) | also measured
Cc1cc2nc3c(=O)[nH]c(=O)nc-3n(C)c2cc1C=O | 24% | 0% | 0% | 5% | 3% | 12% | 0% | 0% | 0% | 11% | 21% | 31% | 13% | 9% | 8% | 0% | 5% | 2% | 0% | 8% | inhibition (RPS6KA3 KD1 (human)): 0%; inhibition (RPS6KA4 KD1 (human)): 0%; inhibition (RPS6KA5 KD1 (human)): 8%; inhibition (RPS6KA6 KD1 (human)): 1%; inhibition (SGK2 (human)): 3%; inhibition (SGK3 (human)): 0%; inhibition (STK32B (human)): 18%
Cc1cc(I)ccc1Nc1c(C(=O)NOCC2CC2)cc(F)c(F)c1F | 0% | 0% | 0% | 0% | 4% | 0% | 20% | 0% | 0% | 0% | 0% | 0% | 9% | 12% | 0% | 0% | 1% | 6% | 6% | 0% | inhibition (RPS6KA3 KD1 (human)): 0%; inhibition (RPS6KA4 KD1 (human)): 0%; inhibition (RPS6KA5 KD1 (human)): 0%; inhibition (RPS6KA6 KD1 (human)): 0%; inhibition (SGK2 (human)): 0%; inhibition (SGK3 (human)): 2%; inhibition (STK32B (human)): 0%
CC(=O)c1c(O)c(C)c(O)c(Cc2c(O)c3c(c(C(=O)/C=C/c4ccccc4)c2O)OC(C)(C)C=C3)c1O | 24% | 0% | 0% | 5% | 10% | 8% | 23% | 0% | 0% | 16% | 22% | 6% | 14% | 26% | 0% | 0% | 9% | 16% | 0% | 9% | inhibition (RPS6KA3 KD1 (human)): 4%; inhibition (RPS6KA4 KD1 (human)): 0%; inhibition (RPS6KA5 KD1 (human)): 0%; inhibition (RPS6KA6 KD1 (human)): 13%; inhibition (SGK2 (human)): 20%; inhibition (SGK3 (human)): 0%; inhibition (STK32B (human)): 23%
O=c1cc(N2CCOCC2)nc2c3ccccc3ccn12 | 0% | 0% | 0% | 0% | 0% | 5% | 0% | 0% | 0% | 0% | 0% | 0% | 6% | 0% | 0% | 0% | 0% | 0% | 0% | 0% | inhibition (RPS6KA3 KD1 (human)): 0%; inhibition (RPS6KA4 KD1 (human)): 0%; inhibition (RPS6KA5 KD1 (human)): 0%; inhibition (RPS6KA6 KD1 (human)): 0%; inhibition (SGK2 (human)): 0%; inhibition (SGK3 (human)): 0%; inhibition (STK32B (human)): 0%
Cc1[nH]c(/C=C2\C(=O)Nc3ccc(S(=O)(=O)Cc4c(Cl)cccc4Cl)cc32)c(C)c1C(=O)N1CCC[C@@H]1CN1CCCC1 | 8% | 0% | 0% | 19% | 33% | 39% | 9% | 7% | 0% | 1% | 13% | 0% | 7% | 12% | 12% | 7% | 0% | 7% | 32% | 14% | inhibition (RPS6KA3 KD1 (human)): 13%; inhibition (RPS6KA4 KD1 (human)): 12%; inhibition (RPS6KA5 KD1 (human)): 22%; inhibition (RPS6KA6 KD1 (human)): 25%; inhibition (SGK2 (human)): 2%; inhibition (SGK3 (human)): 0%; inhibition (STK32B (human)): 23%
